We go through one molecule from BindingDB's records for doi:10.1021/bi049459m (University of Florida College of Medicine, 2004).

Each structure is given as a SMILES string.

Holding throughout (test): Protease Inhibition Assay
Test [1] concerns the target T1, Dimer of Gag-Pol polyprotein [489-587,K509R,V521I,L522F,M525I,L552P,A560V,V571A,I573V,L579M] (Human immunodeficiency virus 1, UniProt P04585, A560V/I573V/K509R/L522F/L552P/L579M/M525I/V521I/V571A).
T1 construct: 489-587

Test [2] concerns the target T2, Dimer of Gag-Pol polyprotein [489-587,K509R,V521I,L522F,M525I,M535I,L552P,A560V,V571A,I573V,L579M] (Human immunodeficiency virus 1, UniProt P04585, A560V/I573V/K509R/L522F/L552P/L579M/M525I/M535I/V521I/V571A).
T2 construct: 489-587

Test [3] has as its target T3, Dimer of Gag-Pol polyprotein [489-587] (Human immunodeficiency virus 1, UniProt P04585).
T3 construct: 489-587
The note with it: pH 4.7; 37 °C.

Test [4] addresses T4, Dimer of Gag-Pol polyprotein [489-587,K509R,V521I,L522F,M525I,L552P,A560V,V571A,L579M] (Human immunodeficiency virus 1, UniProt P04585, A560V/K509R/L522F/L552P/L579M/M525I/V521I/V571A).
T4 construct: 489-587
The note with it: pH 4.7; 37 °C.

Test [5] concerns the target T5, Dimer of Gag-Pol polyprotein [489-587,K509R,V521I,L522F,M525I,M535I,L552P,A560V,V571A,L579M] (Human immunodeficiency virus 1, UniProt P04585, A560V/K509R/L522F/L552P/L579M/M525I/M535I/V521I/V571A).
T5 construct: 489-587
The note with it: pH 4.7; 37 °C.

For test [6], the target named is T6, Dimer of Gag-Pol polyprotein [489-587,K509R,V521I,L522F,M525I,I543V,L552P,A560V,V571A,L579M] (Human immunodeficiency virus 1, UniProt P04585, A560V/I543V/K509R/L522F/L552P/L579M/M525I/V521I/V571A).
T6 construct: 489-587
The note with it: pH 4.7; 37 °C.

Test [7] deals with T7, Dimer of Gag-Pol polyprotein [489-587,K509R,V521I,L522F,M525I,I543V,L552P,A560V,V571A,I573V,L579M] (Human immunodeficiency virus 1, UniProt P04585, A560V/I543V/I573V/K509R/L522F/L552P/L579M/M525I/V521I/V571A).
T7 construct: 489-587

Test [8] deals with T8, Dimer of Gag-Pol polyprotein [489-587,K509R,V521I,L522F,M525I,M535I,I543V,L552P,A560V,V571A,I573V,L579M] (Human immunodeficiency virus 1, UniProt P04585, A560V/I543V/I573V/K509R/L522F/L552P/L579M/M525I/M535I/V521I/V571A).
T8 construct: 489-587

Take `Cc1ccccc1CNC(=O)[C@H]1N(C(=O)[C@@H](O)[C@H](Cc2ccccc2)NC(=O)c2cccc(O)c2C)CSC1(C)C` [AG1776]: the Ki (usually a measure of affinity in units of concentration, obtained from inhibition or displacement) in test [1] worked out at 0.55 nM; in test [2] it was 2.2 nM; in test [3] it was 0.021 nM; in test [4], 0.04 nM; in test [5], 0.5 nM; in test [6] it was 0.19 nM. For the same molecule, the Ki in test [7] was 9.4 nM; in test [8] it was 5.6 nM.
